According to PMC9133232 (Cell chemical biology, 2022):
Like-named read-outs stand apart in the source and are kept apart here.

Experiments:
[1] = molecular target: T1, HCMV C-A (C161) (Human cytomegalovirus, UniProt P16753, A143V/A209V/C138A/C202A/C84A/C87A); format: binding; details: intact protein LC/MS
[2] = molecular target: HCMV C-A (HCMV Pr C84A, C87A, C138A, C202A) (Human cytomegalovirus, UniProt P16753, A143V/A209V/C138A/C202A/C84A/C87A); experiment: biochemical
[3] = molecular target: T2, WT HCMV Pr (Human cytomegalovirus, UniProt P16753, A143V/A209V); experiment: biochemical; format: biochemical
T2 sequence (P16753 1-256 A143V/A209V): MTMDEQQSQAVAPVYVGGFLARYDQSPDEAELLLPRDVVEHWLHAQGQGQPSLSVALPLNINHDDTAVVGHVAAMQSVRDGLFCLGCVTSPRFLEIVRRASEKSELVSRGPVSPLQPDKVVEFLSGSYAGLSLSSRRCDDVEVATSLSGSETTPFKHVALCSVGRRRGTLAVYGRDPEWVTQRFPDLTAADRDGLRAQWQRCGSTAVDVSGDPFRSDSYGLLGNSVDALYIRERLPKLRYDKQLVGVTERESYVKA

[4] = molecular target: T3, HCMV C-A (Human cytomegalovirus, UniProt P16753, A143V/A209V/C138A/C202A/C84A/C87A); experiment: biochemical
[5] = molecular target: T3, HCMV C-A; details: for t1/2 HCMV C-A: 0.693 divided by kinact
[6] = molecular target: HSV1 Pr (Human herpesvirus 1, UniProt P10210); experiment: Fluorogenic substrate inhibition assay, HSV1 Pr; format: biochemical
[7] = system: EBV Pr; experiment: Fluorogenic substrate inhibition assay, EBV Pr; format: biochemical, Epstein-Barr virus; details: read-out: IC50 EBV Pr; one hour incubation
[8] = system: HFF-1 cells; experiment: Cell death three days post-reinfection; format: cell-based, human
[9] = molecular target: T4, HCMV C-A S225M (Human cytomegalovirus, UniProt P16753, A143V/A209V/C138A/C202A/C84A/C87A/S225M); experiment: KI and kinact determination, HCMV C-A S225M; format: biochemical
[10] = system: HFF-1 cells; experiment: Cytotoxicity determined in parallel to antiviral EC50; details: over the course of the antiviral assay
[11] = molecular target: T3, HCMV C-A; experiment: In-gel fluorescence competition assay in HFF-1 cell lysate; format: binding
[12] = molecular target: T3, HCMV C-A; experiment: Time-course inhibitor labeling by intact protein LC/MS, HCMV C-A; format: binding; details: time course in the absence of DTT
[13] = molecular target: T4, HCMV C-A S225M; experiment: Time-course inhibitor labeling by intact protein LC/MS, HCMV C-A S225M dimer; format: binding; details: time course in the absence of DTT
[14] = molecular target: T1, HCMV C-A (C161); format: binding; details: 5 μM protein in Tris, 50 μM compound, overnight
[15] = molecular target: T3, HCMV C-A; experiment: In-gel fluorescence direct detection assay in HFF-1 cell lysate; format: binding; details: read-out: EC50 reactivity with HCMV C-A (direct in-gel fluorescence); HFF-1 cell lysates
[16] = molecular target: Human Cytomegalovirus Protease C84A, C87A, C138A, C202A, S225M (human cytomegalovirus) (UniProt P16753); experiment: SEC

Row | Compound | IC50 [2] [µM] | IC50 [3] [µM] | Ki [4] [µM] | kinact HCMV C-A [5] [min⁻¹] | kinact/KI HCMV C-A [5] [M⁻¹ s⁻¹] | t1/2 HCMV C-A [5] [min] | IC50 [6] [µM] | IC50 [7] [µM] | also measured
1 | O=C(CCl)Cn1cc(-c2ccccc2)nn1 [Compound 31, 1-Chloro-3-(4-phenyl-1H-1,2,3-triazol-1-yl)propan-2-one] | 25 | 33 | 38 | 0.026 | 11.3 | 26 |  |  | reactivity with C161 (labeling of HCMV C-A) [1]: showed reactivity with C161
2 | O=C(CCl)Cn1cc(-c2ccc([N+](=O)[O-])cc2)nn1 [Compound 34, 1-Chloro-3-(4-(4-nitrophenyl)-1H-1,2,3-triazol-1-yl)propan-2-one] | 22 | 6 |  |  |  |  | 51 |  | 
3 | N#Cc1ccc(-c2cn(CC(=O)CCl)nn2)cc1 [Compound 35, 4-(1-(3-Chloro-2-oxopropyl)-1H-1,2,3-triazol-4-yl)benzonitrile] | 33 | 11 |  |  |  |  | 207 | 21 | 
4 | O=C(CCl)Cn1cc(-c2ccc(Br)cc2)nn1 [Compound 36, 1-(4-(4-Bromophenyl)-1H-1,2,3-triazol-1-yl)-3-chloropropan-2-one] | 25 | 5 |  |  |  |  | 35 | 17 | 
5 | O=C(CCl)Cn1cc(-c2ccc(Cl)cc2)nn1 [Compound 37, 1-Chloro-3-(4-(4-chlorophenyl)-1H-1,2,3-triazol-1-yl)propan-2-one] | 32 | 5 |  |  |  |  | 98 | 11 | 
6 | O=C(CCl)Cn1cc(-c2cccc(Cl)c2)nn1 [Compound 38, 1-Chloro-3-(4-(3-chlorophenyl)-1H-1,2,3-triazol-1-yl)propan-2-one] | 30 | 6 |  |  |  |  | 145 | 8 | 
7 | CC(=O)Nc1cccc(-c2cn(CC(=O)CCl)nn2)c1 [Compound 39, N-(3-(1-(3-Chloro-2-oxopropyl)-1H-1,2,3-triazol-4-yl)phenyl)acetamide] | 46 | 18 |  |  |  |  | 188 | 52 | 
8 | CNC(=O)OCc1c(-c2ccccc2)nnn1CC(=O)CCl [Compound 41, (1-(3-Chloro-2-oxopropyl)-4-phenyl-1H-1,2,3-triazol-5-yl)methyl methylcarbamate] | 60 | 68 |  |  |  |  | > 1000 | 7 | 
9 | CN(C)C(=O)OCc1c(-c2ccccc2)nnn1CC(=O)CCl [Compound 42, (1-(3-Chloro-2-oxopropyl)-4-phenyl-1H-1,2,3-triazol-5-yl)methyl dimethylcarbamate] | 101 | 33 |  |  |  |  | > 1000 |  | 
10 | O=C(CCl)Cn1nnc(-c2ccccc2)c1COC(=O)NCc1ccccc1 [Compound 43, (1-(3-Chloro-2-oxopropyl)-4-phenyl-1H-1,2,3-triazol-5-yl)methyl benzylcarbamate] | 33 | 4 | 9 | 0.024 | 45 | 29 | > 1000 | 2 | cell death three days post-reinfection [8]: minimal; kinact HCMV C-A S225M [9]: 0.011 min⁻¹; CC50 in parallel to antiviral EC50 [10]: 11 μΜ; EC50 [11]: 3 µM; final protein labeling HCMV C-A [12]: 100%; final protein labeling HCMV C-A S225M [13]: 100%; labeling of HCMV C-A at C161 [14]: 100%
11 | COCCNC(=O)OCc1c(-c2ccccc2)nnn1CC(=O)CCl [Compound 44, (1-(3-Chloro-2-oxopropyl)-4-phenyl-1H-1,2,3-triazol-5-yl)methyl (2-methoxyethyl)carbamate] | 54 | 13 | 29 | 0.022 | 12.7 | 31 | 840 | 12 | 
12 | O=C(CCl)Cn1nnc(-c2ccccc2)c1COC(=O)N1CCOCC1 [Compound 45, (1-(3-Chloro-2-oxopropyl)-4-phenyl-1H-1,2,3-triazol-5-yl)methyl morpholine-4-carboxylate] | 66 | 53 | 26 | 0.020 | 12.8 | 35 | 670 | 4 | 
13 | O=C(CCl)Cn1nnc(-c2ccccc2)c1COC(=O)NCCN1CCOCC1 [Compound 46, (1-(3-Chloro-2-oxopropyl)-4-phenyl-1H-1,2,3-triazol-5-yl)methyl (2-morpholinoethyl)carbamate] | 182 |  |  |  |  |  |  |  | 
14 | O=C(CCl)Cn1nnc(-c2ccccc2)c1COC(=O)NCCCN1CCCC1=O [Compound 47, (1-(3-Chloro-2-oxopropyl)-4-phenyl-1H-1,2,3-triazol-5-yl)methyl (3-(2-oxopyrrolidin-1-yl)propyl)carbamate] | 135 |  | 21 | 0.016 | 12.7 | 44 |  |  | 
15 | C#CCNC(=O)OCc1c(-c2ccccc2)nnn1CC(=O)CCl [Compound 48] |  |  |  |  |  |  |  |  | IC50 ([3]; read-out: IC50 WT HCMV Pr, one hour incubation): 8 µM; EC50 [15]: 4 µM
16 | Human Cytomegalovirus Protease C84A, C87A, C138A, C202A, S225M (from UniProt P16753 1-256) (enzyme) |  |  |  |  |  |  |  |  | stoichiometry N [16]: 2
